Experimental data as given in ChEMBL document CHEMBL1201862, “PubChem BioAssay data set” (2004).
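Results reflect a 48-hour exposure of cells in 96-well plates to compound at five concentrations. At the GI50, growth is halved.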 The source made the active and inactive calls. No stated cut-off is given here; in the data, active = GI50 up to about 1.1 µM and inactive = higher.

Columns and labels:
Assay in all cases: inhibition of tumour cell growth, NCI panel, 48 h
HL-60 = system: HL-60
NCI/ADR-RES = system: NCI/ADR-RES
MDA-MB-435 = system: MDA-MB-435
K562 = system: K562
A498 = system: A498
SK-MEL-28 = system: SK-MEL-28
M14 = system: M14
MDA-MB-231 = system: MDA-MB-231
SN12C = system: SN12C
SK-MEL-5 = system: SK-MEL-5
OVCAR-3 = system: OVCAR-3
NCI-H23 = system: NCI-H23
Hs-578T = system: Hs-578T
HT-29 = system: HT-29
HCT-116 = system: HCT-116
A549 = system: A549
OVCAR-4 = system: OVCAR-4
SNB-75 = system: SNB-75
SF-295 = system: SF-295
NCI-H522 = system: NCI-H522

COc1cc(C(=O)N(C(=S)OCc2ccccn2)c2ccccc2)cc(OC)c1OC
GI50 (HL-60): 27 µM (inactive)
GI50 (NCI/ADR-RES): 39.4 µM (inactive)
GI50 (MDA-MB-435): > 100 µM (inactive)
GI50 (K562): 41.1 µM (inactive)
GI50 (A498): 53.5 µM (inactive)
GI50 (SK-MEL-28): 92.3 µM (inactive)
GI50 (M14): > 100 µM (inactive)
GI50 (MDA-MB-231): 78.5 µM (inactive)
GI50 (SN12C): 43 µM (inactive)
GI50 (SK-MEL-5): 35.2 µM (inactive)
GI50 (OVCAR-3): > 100 µM (inactive)
GI50 (NCI-H23): 86.1 µM (inactive)
GI50 (Hs-578T): 53.7 µM (inactive)
GI50 (HT-29): 29.9 µM (inactive)
GI50 (HCT-116): 44.1 µM (inactive)

COc1ccc(C(=O)/C=C/c2ccc(OCCCCCCCCCCOc3ccc(/C=C/C(=O)c4ccc(OC)cc4)cc3)cc2)cc1
GI50 (HL-60): > 100 µM (inactive)
GI50 (NCI/ADR-RES): > 100 µM (inactive)
GI50 (MDA-MB-435): > 100 µM (inactive)
GI50 (K562): > 100 µM (inactive)
GI50 (A549): > 100 µM (inactive)
GI50 (SK-MEL-28): > 100 µM (inactive)
GI50 (M14): > 100 µM (inactive)
GI50 (OVCAR-4): > 100 µM (inactive)
GI50 (MDA-MB-231): > 100 µM (inactive)
GI50 (SNB-75): 69.7 µM (inactive)
GI50 (SN12C): > 100 µM (inactive)
GI50 (SK-MEL-5): > 100 µM (inactive)
GI50 (SF-295): > 100 µM (inactive)
GI50 (Hs-578T): > 100 µM (inactive)
GI50 (HT-29): > 100 µM (inactive)
GI50 (HCT-116): > 100 µM (inactive)

O=C1C(Cl)=C(NCCN2CCOCC2)C(=O)c2ncccc21
GI50 (MDA-MB-435): 0.195 µM (active)
GI50 (K562): 0.378 µM (active)
GI50 (A498): 2.97 µM (inactive)
GI50 (A549): 2 µM (inactive)
GI50 (SK-MEL-28): 1.84 µM (inactive)
GI50 (M14): 1.61 µM (inactive)
GI50 (MDA-MB-231): 2.08 µM (inactive)
GI50 (SNB-75): 1.35 µM (inactive)
GI50 (SN12C): 1.73 µM (inactive)
GI50 (SK-MEL-5): 0.723 µM (active)
GI50 (OVCAR-3): 1.6 µM (inactive)
GI50 (SF-295): 1.82 µM (inactive)
GI50 (NCI-H23): 1.62 µM (inactive)
GI50 (Hs-578T): 2.11 µM (inactive)
GI50 (HT-29): 2.96 µM (inactive)
GI50 (HCT-116): 1.82 µM (inactive)

COc1cc(C(=O)/C=C/c2ccc(OCC#N)cc2)cc(OC)c1OC
GI50 (NCI/ADR-RES): 18 µM (inactive)
GI50 (MDA-MB-435): 20.5 µM (inactive)
GI50 (K562): 24.5 µM (inactive)
GI50 (A498): 21.4 µM (inactive)
GI50 (A549): 21.4 µM (inactive)
GI50 (SK-MEL-28): 17.3 µM (inactive)
GI50 (M14): > 10 µM (inactive)
GI50 (OVCAR-4): 37.4 µM (inactive)
GI50 (MDA-MB-231): > 10 µM (inactive)
GI50 (SNB-75): > 10 µM (inactive)
GI50 (SN12C): 18.9 µM (inactive)
GI50 (SK-MEL-5): 13.2 µM (inactive)
GI50 (OVCAR-3): 22.2 µM (inactive)
GI50 (SF-295): 46.2 µM (inactive)
GI50 (NCI-H23): 19.5 µM (inactive)
GI50 (Hs-578T): 25.1 µM (inactive)
GI50 (NCI-H522): 17.3 µM (inactive)
GI50 (HT-29): 31.7 µM (inactive)
GI50 (HCT-116): 13.9 µM (inactive)

COc1cc(/C=C2/SC(c3ccccc3)N(c3ccccc3Cl)C2=O)cc(OC)c1OC (stereo not given)
GI50 (HL-60): 16.5 µM (inactive)
GI50 (NCI/ADR-RES): 25.9 µM (inactive)
GI50 (MDA-MB-435): 27.2 µM (inactive)
GI50 (K562): 31.2 µM (inactive)
GI50 (A498): 87.3 µM (inactive)
GI50 (A549): 36.3 µM (inactive)
GI50 (SK-MEL-28): 30.5 µM (inactive)
GI50 (M14): 30.1 µM (inactive)
GI50 (OVCAR-4): 41.6 µM (inactive)
GI50 (MDA-MB-231): 58.3 µM (inactive)
GI50 (SN12C): 23.7 µM (inactive)
GI50 (SK-MEL-5): 15.4 µM (inactive)
GI50 (OVCAR-3): 27.9 µM (inactive)
GI50 (SF-295): 32.1 µM (inactive)
GI50 (NCI-H23): 22.8 µM (inactive)
GI50 (Hs-578T): 30 µM (inactive)
GI50 (NCI-H522): 14.9 µM (inactive)
GI50 (HCT-116): 23.7 µM (inactive)

C=CCn1c(-c2ccc(/N=N/Nc3ccc(-c4n[nH]c(=S)n4CC=C)cc3)cc2)n[nH]c1=S
GI50 (NCI/ADR-RES): 21.4 µM (inactive)
GI50 (MDA-MB-435): 3.33 µM (inactive)
GI50 (K562): 2.12 µM (inactive)
GI50 (A498): > 100 µM (inactive)
GI50 (A549): 3.52 µM (inactive)
GI50 (SK-MEL-28): 6.9 µM (inactive)
GI50 (M14): 3.03 µM (inactive)
GI50 (OVCAR-4): 2.53 µM (inactive)
GI50 (MDA-MB-231): 22 µM (inactive)
GI50 (SNB-75): 3.93 µM (inactive)
GI50 (SN12C): 3.49 µM (inactive)
GI50 (SK-MEL-5): 1.53 µM (inactive)
GI50 (OVCAR-3): 2.52 µM (inactive)
GI50 (SF-295): 3.39 µM (inactive)
GI50 (NCI-H23): 3.22 µM (inactive)
GI50 (Hs-578T): 5.15 µM (inactive)
GI50 (NCI-H522): 2.92 µM (inactive)

FC(F)(F)c1ccc(C2=N/S(c3ccccc3)=N\C(c3ccc(C(F)(F)F)cc3)=N/S(c3ccccc3)=N\2)cc1 (stereo not given)
GI50 (NCI/ADR-RES): > 100 µM (inactive)
GI50 (MDA-MB-435): > 100 µM (inactive)
GI50 (K562): > 100 µM (inactive)
GI50 (A549): > 100 µM (inactive)
GI50 (SK-MEL-28): > 100 µM (inactive)
GI50 (M14): > 100 µM (inactive)
GI50 (OVCAR-4): > 100 µM (inactive)
GI50 (MDA-MB-231): > 100 µM (inactive)
GI50 (SNB-75): > 100 µM (inactive)
GI50 (SN12C): > 100 µM (inactive)
GI50 (SK-MEL-5): > 100 µM (inactive)
GI50 (OVCAR-3): > 100 µM (inactive)
GI50 (SF-295): > 100 µM (inactive)
GI50 (NCI-H23): > 100 µM (inactive)
GI50 (Hs-578T): > 100 µM (inactive)
GI50 (NCI-H522): > 100 µM (inactive)
GI50 (HT-29): > 100 µM (inactive)
GI50 (HCT-116): > 100 µM (inactive)

O=c1[nH]nc(-c2ccccc2)n1/N=C/c1ccccc1O
GI50 (NCI/ADR-RES): > 100 µM (inactive)
GI50 (MDA-MB-435): > 100 µM (inactive)
GI50 (K562): > 100 µM (inactive)
GI50 (A498): 34.1 µM (inactive)
GI50 (A549): > 100 µM (inactive)
GI50 (OVCAR-4): 28.6 µM (inactive)
GI50 (MDA-MB-231): 70 µM (inactive)
GI50 (SN12C): > 100 µM (inactive)
GI50 (SK-MEL-5): 47.8 µM (inactive)
GI50 (OVCAR-3): 59.4 µM (inactive)
GI50 (SF-295): 71 µM (inactive)
GI50 (NCI-H23): > 100 µM (inactive)
GI50 (Hs-578T): 29.3 µM (inactive)
GI50 (NCI-H522): 42.7 µM (inactive)
GI50 (HT-29): > 100 µM (inactive)
GI50 (HCT-116): 33.4 µM (inactive)
